Reference: article PMC7170388, “Strong inhibitory activities and action modes of lipopeptides on lipase” (Journal of Enzyme Inhibition and Medicinal Chemistry, 2020)
Values after ≈ are worked out from the molar mass of the structure shown. Read-outs that look alike come from different tables or passages of the source. No end group written: not given here.

Experiments:
lipase = conditions: cited from earlier work; for IC50 on lipase: previously reported
From the text: The inhibition mechanisms of crude lipopeptide, fengycin, and surfactin on lipase catalysis were studied.

[1] = reported to cause certain side effects; cited from earlier work
From the text: Dietary and lifestyle modifications such as calorie restriction and physical exercises are the common strategies adopted to control body weight; further, these methods have limited anti-obesity effects. It has previously been reported that lipase inhibition is a potential strategy for counteracting obesity. Digestive lipase hydrolyses non-absorbable dietary triglycerides to smaller absorbable molecules of monoglycerides and free fatty acids, which are absorbed by the intestine. Inhibiting digestive lipase can reduce intestinal fat absorption. Human pancreatic lipase is the main enzyme ...

Mucor miehei lipase [2] = target: T1, Mucor miehei lipase (Mucor miehei, UniProt P19515 95-363)
T1 sequence (looked up): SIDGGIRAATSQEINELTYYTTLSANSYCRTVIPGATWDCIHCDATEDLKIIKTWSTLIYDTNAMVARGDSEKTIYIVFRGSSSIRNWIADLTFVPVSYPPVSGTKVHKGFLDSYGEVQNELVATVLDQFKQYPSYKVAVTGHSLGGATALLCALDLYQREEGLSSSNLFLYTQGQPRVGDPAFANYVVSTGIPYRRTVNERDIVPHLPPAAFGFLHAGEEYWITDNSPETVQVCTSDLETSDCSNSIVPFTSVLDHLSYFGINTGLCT

Mucor miehei lipase [3] = target: T1, Mucor miehei lipase; experiment: other fluorescence titration; quenching of the intrinsic fluorescence of lipase (emission peak 338 nm) by crude lipopeptide at 0-0.457 mg/mL; Stern-Volmer and double-logarithmic plots
Mucor miehei lipase [4] = target: T2, Mucor miehei lipase (Rhizomucor miehei, UniProt P19515); experiment: Inhibition mechanism and type of lipopeptides on lipase (activity vs enzyme concentration; Lineweaver-Burk); type: biochemical; set-up: purchased Sigma-Aldrich (St. Louis, MO); conditions: for Inhibition effect: Type: Lineweaver-Burk plot, Tris-HCl buffer, 100 µL lipase; for IC50, Calculated: calculated value of Table 2; for Inhibition effect: Mechanisms: remaining enzyme activity vs enzyme concentration, lines intersecting at the origin, fixed substrate; for Inhibition constant KI: secondary plot of 1/Vm versus inhibitor concentration
T2 sequence (P19515 95-363): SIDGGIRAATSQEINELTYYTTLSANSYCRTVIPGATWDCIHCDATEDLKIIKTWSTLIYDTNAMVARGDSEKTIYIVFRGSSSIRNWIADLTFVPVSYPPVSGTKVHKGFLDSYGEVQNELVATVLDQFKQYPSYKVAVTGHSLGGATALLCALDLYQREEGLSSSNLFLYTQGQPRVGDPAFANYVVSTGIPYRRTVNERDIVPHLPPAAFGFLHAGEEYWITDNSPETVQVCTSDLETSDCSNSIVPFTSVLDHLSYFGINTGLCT
Method: The inhibition mechanisms were studied by fixing the concentration of substrate and changing the lipopeptides and enzymes to monitor enzymatic reaction. The inhibition types were determined based on the Lineweaver-Burk plot[22]; this reaction system contained different concentrations of substrate and lipopeptide and 100 µL of lipase in Tris-HCl buffer. Then, the inhibition constant was calculated from a secondary plot of 1/Vm versus the inhibitor concentration.

Mucor miehei lipase [5] = target: T2, Mucor miehei lipase; experiment: Lipase inhibition (4-NPP hydrolysis, 405 nm); conditions: relative to iturin
Method: Lyophilised powder of Mucor miehei lipase (EC3.1.1.3), 4-Nitrophenyl palmitate (4-NPP), iturin, and surfactin were purchased from Sigma-Aldrich (St. Louis, MO). Acetonitrile, hydrochloric acid (HCl) and Tris were purchased from Sinopharm (Shanghai, China).
The lipase inhibition was determined according to the method described by Liu et al.[21] 10 µg/mL lipase in water and 7.5 mmol/L 4-NPP in acetonitrile solutions were prepared. […] The 1 mL reaction mixture contained 0.75 mM 4-NPP, 0.4 µg/mL lipase, and different concentrations of inhibitor in Tris-HCl buffer (pH 7.8). The reaction was carried out at 37 °C and the detection wavelength was set at 405 nm.

Mucor miehei lipase [6] = target: T1, Mucor miehei lipase; remark: listed apart in the source
[7] = from 72 mN/m; cited from earlier work
From the text: In fact, it has been reported that bacterial cyclic lipopeptides are the most popular amphiphilic molecules that are excellent surface active compounds[12]. The genus Bacillus is described as an efficient source of lipopeptide biosurfactants. The Bacillus lipopeptides are divided into three different families, including iturins, surfactins, and fengycins, ...

Mucor miehei lipase [8] = target: T1, Mucor miehei lipase; experiment: cell-based or functional assay

## O=C(O)c1ccco1 [furoic acid]
lipase
  inhibition mechanism on lipase: reversible
  IC50 on lipase: 242 µg/mL (≈ 2.16 mM)

## CCCCCCCCCCC[C@@H](C[C@@H]1OC(=O)[C@H]1CCCCCC)OC(=O)[C@H](CC(C)C)NC=O [orlistat]
lipase
  inhibition mechanism on lipase: irreversible
[1]
  side effects: oily stools, oily spotting, and flatulence

## O=C(O)C(=O)O [oxalic acid]
lipase
  inhibition mechanism on lipase: reversible
  IC50 on lipase: 1425 µg/mL (≈ 15.8 mM)

## crude lipopeptide from Bacillus velezensis FJAT-52631
Mucor miehei lipase [2]
  IC50 (calculated) of inhibition of lipase activity: 8 µg/mL
  IC50 (measured) of inhibition of lipase activity (4-NPP hydrolysis): 11 µg/mL
Mucor miehei lipase [3]
  Ksv (Stern-Volmer quenching constant): 0.525 L/g
  stoichiometry N: 0.78

## fengycin
Mucor miehei lipase [4]
  Inhibition effect: Type: Competitive inhibition
  IC50, Calculated: 2 µg/mL
  Inhibition effect: Mechanisms: Reversible
  Inhibition constant KI: 1 µg/mL
Mucor miehei lipase [4]; listed as fengycin
  Inhibition effect: Type: competitive
Mucor miehei lipase [5]
  stronger lipase inhibition activity than iturin: about 10 -fold

## iturin standard (peptide)
Mucor miehei lipase [6]
  IC50 of inhibition of lipase activity (4-NPP hydrolysis): 56 µg/mL

## purified fengycin from Bacillus velezensis FJAT-52631 (peptide)
Mucor miehei lipase [2]
  IC50 (calculated) of inhibition of lipase activity: 2 µg/mL
  IC50 (measured) of inhibition of lipase activity (4-NPP hydrolysis): 5 µg/mL

## surfactin
[7]
  surface tension of water lowered to: 27 mN/m
Mucor miehei lipase [4]
  Inhibition effect: Type: Competitive inhibition
  IC50, Calculated: 1 µg/mL
  Inhibition effect: Mechanisms: Reversible
  Inhibition constant KI: 1 µg/mL
Mucor miehei lipase [4]; listed as surfactin
  Inhibition effect: Type: competitive
Mucor miehei lipase [5]
  stronger lipase inhibition activity than iturin: about 10 -fold

B1: surfactin standard (peptide)
chain: ELLVDLL
modifications: not fully specified (residues 3, 6, N-terminus, bridges); also: cyclic peptide ring with beta-hydroxy fatty acid chain, attachment not given here
Mucor miehei lipase [8]
  IC50 (calculated) of inhibition of lipase activity: 1 µg/mL
  IC50 (measured) of inhibition of lipase activity (4-NPP hydrolysis): 5 µg/mL
